Laboratory results: US20090048247A1, “CONDENSED ISOXALINE DERIVATIVES AS INHIBITORS OF PHOSPHODIESTERASE TYPE - IV” (priority 2005, published 2009)
One block for each compound: values may come before it.

Columns and labels:
[1] = Solubility under the experimental conditions of the PDE-IV enzyme assay
Description: The PDE-4 enzyme source used was U937 cell cytosolic fraction prepared by sonication. The enzyme reaction was carried out, with the cytosolic fraction as the enzyme source, in the presence of cAMP (1 μM) at 30° C. in the presence or absence of NCE for 45-60 min. An aliquot of this reaction mixture was taken further for the ELISA assay to determine level of cAMP in the sample. The concentration of the cAMP in the sample directly correlates with the degree of PDE-4 enzyme inhibition.

[2] = test system: TNF-α release, human peripheral blood mononuclear cells; experiment: Cell Based Assay for TNF-α Release (LPS stimulation of Human PBMNC's); conditions: PBMC, LPS 1 μg/ml, TNF-α by ELISA, comparator, 4 repetitions
Description: Human whole blood was collected in vacutainer tubes containing heparin or EDTA as an anti coagulant. The blood was diluted (1:1) in sterile phosphate buffered saline and 10 ml. was carefully layered over 5 ml Ficoll Hypaque gradient (density 1.077 g/ml) in a 15 ml conical centrifuge tube. The sample was centrifuged at 3000 rpm for 25 minutes in a swing-out rotor at room temperature. After centrifugation, interface of cells were collected, diluted at least 1:5 with PBS and washed three times by centrifugation at 2500 rpm for 10 minutes at room temperature. The cells were resuspended in serum free RPMI 1640 medium at a concentration of 2 million cells/ml. Alternatively whole blood was used.
LPS stimulation of Human PBMNC's:
PBMN cells (0.1 ml; 2 million/ml) were co-incubated with 20 μl of compound (final DMSO concentration of 0.2%) for 10 min in a flat bottom 96 well microtiter plate. Compounds were dissolved in DMSO initially and diluted in medium for a final concentration of 0.2% DMSO. LPS (1 μg/ml, final concentration) was then added at a volume of 10 μl per well. After 30 min, 20 μl of fetal calf serum (final concentration of 10%) was added to each well. […] The level of TNFα in treated wells was compared with the vehicle treated controls and inhibitory potency of compound was expressed as IC50 values calculated by using Graph pad prism.

SMILES: c1cc(OC2CCCC2)c(OC2CCCCCC2)cc1C1=NOC2(CCOC2)C1 (stereo not drawn) [Compound No. 119, 3-[3-(Cycloheptyloxy)-4-(cyclopentyloxy)phenyl]-1,7-dioxa-2-azaspiro[4.4]non-2-ene]
- solubility under the experimental conditions [1]: insoluble

- melting point: 110.5 °C
SMILES: COc1ccc(C2=NO[C@]3(CCOC3)C2)cc1OC1CCCC1 [Compound No. 124, (S)-3-[3-(cyclopentyloxy)-4-methoxyphenyl]-1,7-dioxa-2-azaspiro[4.4]non-2-ene]

- IC50 [2]: ~0.24 µM
SMILES: COc1ccc(C2CNC(=O)C2)cc1OC1CCCC1 (stereo not drawn) [rolipram]
